Measurements from publication PMC10141580, “Cyclic Dichalcogenides Extend the Reach of Bioreductive Prodrugs to Harness Thiol/Disulfide Oxidoreductases: Applications to seco-Duocarmycins Targeting the Thioredoxin System” (ACS Central Science, 2023).
Like-named read-outs stand apart in the source and are kept apart here.

What was measured:
HeLa-HRE cells = assay: Resazurin cytotoxicity assay, HeLa-HRE, 48 h
Description: We used A549 lung cancer and HeLa cervical cancer cell lines for initial screening of the prodrugs.
HeLa-HRE cells were treated with prodrugs of the
Dose -response curves were calculated from at least 27 incremental single concentrations over a
range of at least three log units.

[1] = tested on: NCI-60 standardized human tumor cell line panel; assay: cells; assay type: cell-based; details: for NCI-60 screening: Log(GI50): log10 of GI50 in M; for NCI-60 screening: Log(RedIndex): log10 reductive index vs P-CC60

SMILES: COc1cc2cc(C(=O)N3C[C@@H](CCl)c4c3cc(OC(=O)N(CCC(=O)N3CCN(C)CC3)[C@H]3CCSSC3)c3ccccc43)[nH]c2c(OC)c1OC [P-SS60-CBI-TMI]
- IC50(HeLa)/IC50(A549) (HeLa-HRE cells; ratio HeLa vs A549): 2.3
- IC50 (HeLa-HRE cells; read-out: IC50(nM): HeLa, HeLa, 48 h): 420 nM
- NCI-60 screening: Log(GI50) ([1]; 786-0 (RE) cell line): -6.79
- NCI-60 screening: Log(RedIndex) ([1]; 786-0 (RE) cell line): 1.02
- GI50 ([1]; 786-0 (RE) cell line, read-out: NCI-60 screening: Raw GI50): 160 nM
- GI50 ([1]; 786-0, read-out: GI50): 160 nM
- NCI-60 screening: Log(GI50) ([1]; A498 (RE) cell line): -6.6
- NCI-60 screening: Log(RedIndex) ([1]; A498 (RE) cell line): 1.04
- GI50 ([1]; A498 (RE) cell line, read-out: NCI-60 screening: Raw GI50): 250 nM
- GI50 ([1]; A498, read-out: GI50): 250 nM
- GI50 ([1]; A549/ATCC, read-out: GI50): 150 nM
- NCI-60 screening: Log(GI50) ([1]; ACHN (RE) cell line): -7.25
- NCI-60 screening: Log(RedIndex) ([1]; ACHN (RE) cell line): 0.94
- GI50 ([1]; ACHN (RE) cell line, read-out: NCI-60 screening: Raw GI50): 56 nM
- GI50 ([1]; ACHN, read-out: GI50): 56 nM
- GI50 ([1]; BT-549, read-out: GI50): 230 nM
- NCI-60 screening: Log(GI50) ([1]; CAKI-1 (RE) cell line): -6.57
- NCI-60 screening: Log(RedIndex) ([1]; CAKI-1 (RE) cell line): 0.74
- GI50 ([1]; CAKI-1 (RE) cell line, read-out: NCI-60 screening: Raw GI50): 270 nM
- GI50 ([1]; CAKI-1, read-out: GI50): 270 nM
- GI50 ([1]; CCRF-CEM, read-out: GI50): 220 nM
- GI50 ([1]; COLO 205, read-out: GI50): 340 nM
- NCI-60 screening: Log(GI50) ([1]; DU-145 (PR) cell line): -7.23
- NCI-60 screening: Log(RedIndex) ([1]; DU-145 (PR) cell line): 0.89
- GI50 ([1]; DU-145, read-out: GI50): 59 nM
- GI50 ([1]; EKVX, read-out: GI50): 320 nM
- GI50 ([1]; HCC-2998, read-out: GI50): 160 nM
- GI50 ([1]; HCT-15, read-out: GI50): 260 nM
- GI50 ([1]; HCT-116, read-out: GI50): 160 nM
- GI50 ([1]; HL-60(TB), read-out: GI50): 120 nM
- GI50 ([1]; HOP-62, read-out: GI50): 110 nM
- GI50 ([1]; HOP-92, read-out: GI50): 350 nM
- GI50 ([1]; HT29, read-out: GI50): 270 nM
- NCI-60 screening: Log(GI50) ([1]; IGROV1 (OV) cell line): -6.3
- NCI-60 screening: Log(RedIndex) ([1]; IGROV1 (OV) cell line): 0.66
- GI50 ([1]; IGROV1, read-out: GI50): 500 nM
- GI50 ([1]; K-562, read-out: GI50): 160 nM
- GI50 ([1]; KM12, read-out: GI50): 270 nM
- GI50 ([1]; LOX IMVI, read-out: GI50): 210 nM
- GI50 ([1]; M14, read-out: GI50): 190 nM
- GI50 ([1]; MALME-3M, read-out: GI50): 280 nM
- GI50 ([1]; MCF7, read-out: GI50): 35 nM
- GI50 ([1]; MDA-MB-435, read-out: GI50): 210 nM
- GI50 ([1]; MDA-MB-468, read-out: GI50): 170 nM
- GI50 ([1]; MOLT-4, read-out: GI50): 90 nM
- GI50/IC50, mean ([1]; NCI-60 vs ProliFiler, 19 overlapping cell lines): 4.0
- GI50 ([1]; NCI-H23, read-out: GI50): 55 nM
- GI50 ([1]; NCI-H226, read-out: GI50): 430 nM
- NCI-60 screening: Log(GI50) ([1]; NCI-H460 (LC) cell line): -7.25
- NCI-60 screening: Log(RedIndex) ([1]; NCI-H460 (LC) cell line): 0.96
- GI50 ([1]; NCI-H460 (LC) cell line, read-out: NCI-60 screening: Raw GI50): 56 nM
- GI50 ([1]; NCI-H460, read-out: GI50): 56 nM
- NCI-60 screening: Log(GI50) ([1]; NCI-H522 (LC) cell line): -6.58
- NCI-60 screening: Log(RedIndex) ([1]; NCI-H522 (LC) cell line): 0.81
- GI50 ([1]; NCI-H522 (LC) cell line, read-out: NCI-60 screening: Raw GI50): 260 nM
- GI50 ([1]; NCI-H522, read-out: GI50): 260 nM
- NCI-60 screening: Log(GI50) ([1]; OVCAR-3 (OV) cell line): -6.63
- NCI-60 screening: Log(RedIndex) ([1]; OVCAR-3 (OV) cell line): 0.95
- GI50 ([1]; OVCAR-3, read-out: GI50): 240 nM
- NCI-60 screening: Log(GI50) ([1]; OVCAR-4 (OV) cell line): -6.33
- NCI-60 screening: Log(RedIndex) ([1]; OVCAR-4 (OV) cell line): 0.7
- GI50 ([1]; OVCAR-4, read-out: GI50): 460 nM
- NCI-60 screening: Log(GI50) ([1]; OVCAR-5 (OV) cell line): -6.51
- NCI-60 screening: Log(RedIndex) ([1]; OVCAR-5 (OV) cell line): 1.22
- GI50 ([1]; OVCAR-5, read-out: GI50): 310 nM
- NCI-60 screening: Log(GI50) ([1]; OVCAR-8 (OV) cell line): -6.73
- NCI-60 screening: Log(RedIndex) ([1]; OVCAR-8 (OV) cell line): 0.95
- GI50 ([1]; OVCAR-8 (OV) cell line, read-out: NCI-60 screening: Raw GI50): 190 nM
- GI50 ([1]; OVCAR-8, read-out: GI50): 190 nM
- NCI-60 screening: Log(GI50) ([1]; PC-3 (PR) cell line): -6.14
- NCI-60 screening: Log(RedIndex) ([1]; PC-3 (PR) cell line): 0.64
- GI50 ([1]; PC-3, read-out: GI50): 720 nM
- GI50 ([1]; RPMI-8226, read-out: GI50): 220 nM
- NCI-60 screening: Log(GI50) ([1]; RXF 393 (RE) cell line): -6.83
- NCI-60 screening: Log(RedIndex) ([1]; RXF 393 (RE) cell line): 0.85
- GI50 ([1]; RXF 393 (RE) cell line, read-out: NCI-60 screening: Raw GI50): 150 nM
- GI50 ([1]; RXF 393, read-out: GI50): 150 nM
- GI50 ([1]; SF-268, read-out: GI50): 190 nM
- GI50 ([1]; SF-295, read-out: GI50): 140 nM
- GI50 ([1]; SF-539, read-out: GI50): 170 nM
- GI50 ([1]; SK-MEL-5, read-out: GI50): 170 nM
- GI50 ([1]; SK-MEL-28, read-out: GI50): 290 nM
- NCI-60 screening: Log(GI50) ([1]; SK-OV-3 (OV) cell line): -6.58
- NCI-60 screening: Log(RedIndex) ([1]; SK-OV-3 (OV) cell line): 0.91
- GI50 ([1]; SK-OV-3 (OV) cell line, read-out: NCI-60 screening: Raw GI50): 260 nM
- GI50 ([1]; SK-OV-3, read-out: GI50): 260 nM
- NCI-60 screening: Log(GI50) ([1]; SN12C (RE) cell line): -6.54
- NCI-60 screening: Log(RedIndex) ([1]; SN12C (RE) cell line): 0.62
- GI50 ([1]; SN12C (RE) cell line, read-out: NCI-60 screening: Raw GI50): 290 nM
- GI50 ([1]; SN12C, read-out: GI50): 290 nM
- GI50 ([1]; SNB-19, read-out: GI50): 250 nM
- GI50 ([1]; SR, read-out: GI50): 34 nM
- GI50 ([1]; SW-620, read-out: GI50): 220 nM
- GI50 ([1]; T-47D, read-out: GI50): 700 nM
- NCI-60 screening: Log(GI50) ([1]; TK-10 (RE) cell line): -5.47
- NCI-60 screening: Log(RedIndex) ([1]; TK-10 (RE) cell line): -0.07
